{"source": "patent US5977116A", "about": "“Piperazine, piperidine and tetrahydropyridine derivatives” (Merck Sharp & Dohme Ltd., priority 1995, dated 1999)", "origin": "cited, not measured here", "tested_on": "human 5-HT1Dα and 5-HT1Dβ receptor subtypes", "conditions": "cf. WO-A-91/17174, Table 1"}
{"smiles": "CNS(=O)(=O)Cc1ccc2[nH]cc(CCN(C)C)c2c1", "note": "[sumatriptan]", "values": [{"measurement": "discrimination between human 5-HT1Dα and 5-HT1Dβ receptor subtypes", "value": "barely discriminates"}]}
